Test results taken from patent US5470873A, “Diabetes prevention and treatment using gamma-pyrones” (University Technologies International, Inc., priority 1994, dated 1995).

Tests used:
[1] = immunosuppressive therapy, humans; cited from earlier work
[2] = oral; flavoring agents for foods; cited from earlier work
[3] = Prevention of clinical diabetes (glycosuria) in NOD mice; type: in vivo
Protocol: (§1) NOD mice were dosed with maltol to evaluate its effect on the pathogenesis of type I diabetes. Mice received 5 mg maltol/mouse every other day from age 2 weeks until they were 20 weeks old. Maltol extracted from ginseng as described in Example 2 was used for the first 10 weeks, then maltol purchased from Sigma Co., St. Louis, MO was used thereafter. The mice were kept until they were 35 weeks old. Urine glucose was measured at 3-day intervals from 10 to 35 weeks of age. Urinary glucose and ketone levels were determined using Diastix and Ketostix reagent slips (Miles, Ontario, Canada). Individual mice were classified as being diabetic on the basis of positive glycosuria^38. […] In contrast, 78% of age-matched control mice (22 mice) spontaneously developed autoimmune diabetes. At 35 weeks of age, fasting (8 hours of fasting) and non-fasting blood glucose levels were measured. Blood was obtained from the retro-orbital venous plexus of fasting and nonfasting NOD mice. Glucose levels were measured enzymatically by the glucose oxidase method with o-dianisidine dihydrochloride as the reactive dye ^39-41 . The mean nonfasting blood glucose level of 35 ICR mice (nondiabetic control mice; NOD mice were derived from ICR mice) was 149±27 mg/dl. Any non-fasting mouse with a blood glucose level greater than 230 mg/dl (3 SD above the mean) was scored as diabetic. The mean fasting blood glucose level of 38 ICR mice was 137±28 mg/dl. Any fasting mouse with a blood glucose level greater than 221 mg/dl (3 SD above the mean) was scored as diabetic.

[4] = Blood glucose levels in NOD mice (glucose oxidase method); type: in vivo; conditions: 35 weeks of age
Protocol: as §1

[5] = Pancreatic insulin content (immunoreactive insulin, radioimmunoassay) in NOD mice; type: in vivo
Protocol: Insulin was extracted from the pancreas of non-obese diabetic (NOD) mouse by known methods ^33,34. Briefly, deep frozen pancreatic tissue (50% of each pancreas) was placed into phosphate buffered saline (PBS) and then extraction solution A (380 ml absolute alcohol, 20 ml H2 O, 8 ml concentrated HCl and some drops of alcoholic phenol red) was added. This mixture was homogenized with polytron type PT 10-20-[…] in glass tubes (15×125 mm) for 30 seconds in position 5. The homogenized material in the tubes was incubated at 4° C. for 10 hours. At the end of the incubation period, the homogenized material was centrifuged at 800 g for 5 minutes for clarification. The supernatant was saved. The pellet was re-extracted with 1 ml of extraction solution B (356 ml absolute alcohol, 124 ml H2 O and 7.5 ml HCl). The pellet in extraction solution B was incubated for 4 hours at 4° C. and then homogenized with a polytron as described above. The homogenized material was centrifuged at 800 g for 5 minutes. The supernatant was pooled with the supernatant from the first extraction. The pooled supernatant was neutralized with concentrated NH40 H (about 10 μl ) until the phenol red turned to purple. The neutralized supernatant was precipitated at 4° C. and then centrifuged at 800 g for 5 min. The supernatant, which contains insulin, was used for the measurement of insulin by radioimmunoassay. The concentration of immunoreactive insulin (IRI) in the pancreas from DPD-treated and untreated NOD mice was measured by radioimmunoassay techniques ^42-44 using mouse insulin as a standard. Briefly, the extracted samples from NOD mice were mixed with […], and anti-insulin antibody. The mixed materials were incubated for 2 hours at room temperature. At the end of the incubation period, anti-guinea pig IgG raised in sheep was added and the mixture was incubated for 30 minutes at room temperature. At the end of the incubation, the samples were centrifuged at 1500 g for 10 minutes. The supernatant was completely removed. The radioactivity of the pellets was measured. The percent of activity was determined by the following formula: [formula] On the basis of % activity in standards, a standard curve was constructed. The concentration of each unknown sample from maltol-treated or untreated NOD pancreas was read on the basis of the standard curve. […] The maltol-treated mice have insulin levels that are similar to the non-diabetic, untreated animals. About 75% of the maltol-treated mice have insulin levels over 80 μg/g pancreas and about 25% have insulin levels between 55-75 μg/g pancreas.

[6] = Inhibition of hydrogen peroxide induced free radical production (luminol chemiluminescence); type: biochemical; conditions: for Chemiluminescence: 3 μM luminol, 20 μl H2O2, without maltol 11845.0 ± 1414.0
Protocol: One of the possible mechanisms for the destruction of pancreatic beta cells in autoimmune Type I diabetes is their damage by free radicals and cytokines released from macrophages and T lymphocytes. It is hypothesized that maltol can inhibit the action of these released radicals and thus prevent Type I diabetes. We measured the effect of maltol on the inhibition of free radicals produced by hydrogen peroxide.
Chemiluminescence produced by hydrogen peroxide was measured using a liquid scintillation counter (LKB 1217/1217 Rack Beta) set to the tritium channel. Briefly, luminol (5-amino-2,3-dihydro-l,4-phthalazinedione) was dissolved in dimethylsulfoxide and diluted with Krebs-Ringer bicarbonate buffer (pH 7.4) containing […] Hepes and no glucose. The final concentration of dimethylsulfoxide was 0.06 μl/ml. Under these assay conditions, 3 μM luminol and various amounts of hydrogen peroxide ranging from 5-20μl were mixed with 5 ml of Krebs-Ringer bicarbonate buffer, with or without maltol. Chemiluminescence was measured for a 30 second period beginning at 20 seconds after the addition of hydrogen peroxide.

pancreatic islets = assay: Histologic changes of pancreatic islets (hematoxylin and eosin); type: in vivo, NOD mice; conditions: compared to untreated, diabetic NOD mice
Source text: Maltol-treated and untreated NOD mice were sacrificed and 25% of each pancreas was fixed in 6% Formalin. Paraffin-embedded sections were stained with hematoxylin and eosin and examined under an Olympus light microscope ^49. To see whether there are any histological differences between the pancreatic islets of DPD-treated and untreated NOD mice, the pancreatic islets of 35 week old mice were examined with the light microscope after staining with hematoxylin and eosin. […] The rest of their islets were rated as having either severe (22%), moderate (27%), mild (25%) or no (6%) insulitis. […] In addition, there were histopathological changes in their pancreatic islets that were rated as moderate (22% of examined islets), mild (30%) or as having no insulitis (15%).

pancreatic beta cells = assay: Destruction of pancreatic beta cells detected by fluorescein labelled anti-insulin antibody; type: in vivo, NOD mice; conditions: compared to untreated, diabetic NOD mice
Protocol: Fluorescein isothiocyanate-labelled anti-insulin antibody was prepared as described previously 45. Briefly, gamma globulin that was prepared by immunizing guinea pigs with glutaraldehyde polymerized porcine insulin and purified by Sephadex G-200 chromatography was purchased from Index Corp., Glenwood, Ill, USA. This material was labelled with FITC. Unconjugated FITC was removed by dialysis against 0.01M PBS (pH 7.5) and by gel filtration through a Sephadex G-25. The labelled gamma globulin was subsequently absorbed with acetone-treated mouse liver powder to eliminate nonspecific fluorescence. Pancreatic sections (from 25% of each pancreas) prepared from maltol-treated and untreated NOD mice were stained with FITC-labelled anti-insulin antibody and examined under a fluorescent microscope as described elsewhere 47.48. Briefly, pancreatic sections on the slides were flooded with FITC-labelled anti-insulin antibody and incubated in a humidity chamber overnight at 4° C. in the dark. The slides were then washed in three changes of cold PBS for a total of 20 min to remove any unattached antibody, mounted with Elvanol and observed with an Olympus fluorescence microscope ^45. As it is difficult to determine whether the lymphocytes observed in the pancreatic islets are contributing to beta cell destruction, another method was used to determine whether beta cells from maltol-treated or untreated NOD mice were destroyed or not. Sections of pancreatic islets were stained with a fluorescein-labelled anti-insulin antibody and the number of insulin-containing beta cells in the islets was estimated.

O=P1(N(CCCl)CCCl)NCCCO1 (stereo not shown) [cyclophosphamide]
Effect on course of IDDM [1]: did not alter the course of the disease

CCc1occc(=O)c1O [ethyl maltol]
Toxicity when taken orally [2]: very low toxicities when taken orally

Cc1occc(=O)c1O [maltol, 3-Hydroxy-2-methyl-4-pyrone]
Success in preventing clinical diabetes [3]: 100%
Mice showing signs of clinical diabetes ([3]; 5 mg/mouse every other day, age 2 to 20 weeks, urine glucose 10 to 35 weeks, untreated 78%): 0%
Prevention / recurrence of clinical diabetes (in words) ([3]; observed to 35 weeks, incl. 15 weeks after cessation of treatment): can prevent clinical diabetes completely
Mean fasting blood glucose ([4]; fasting (8 hours), untreated diabetic 334±47): 92 ± 17 mg/dL
Mean non-fasting blood glucose ([4]; non-fasting, untreated diabetic 342±45): 132 ± 19 mg/dL
Pancreatic insulin / protection from beta cell destruction (in words) ([5]; NOD mice): substantial protection from beta cell destruction
Pancreatic insulin level ([5]; about 25% of the maltol-treated mice): 55-75 μg/g pancreas
Pancreatic insulin level ([5]; about 75% of the maltol-treated mice, majority of untreated less than 10 μg/g): over 80 μg/g pancreas
Percent inhibition of free radical production ([6]; 0.2 mM maltol): 60%
Chemiluminescence ([6]; 0.2 mM maltol): 4829.3 ± 792.1 cpm
Percent inhibition of free radical production ([6]; 2.0 mM maltol): 98%
Chemiluminescence ([6]; 2.0 mM maltol): 210. ± 55.1 cpm
Percent inhibition of free radical production ([6]; 80 mM maltol): 99.7%
Chemiluminescence ([6]; 80 mM maltol): 31.6 ± 3.1 cpm
Lymphocytic infiltration of the pancreatic islets (in words) (pancreatic islets): much less lymphocytic infiltration of the pancreatic islets
Destruction of pancreatic beta cells (in words) (pancreatic beta cells): significantly less destruction of pancreatic beta cells
Toxicity when taken orally [2]: very low toxicities when taken orally
